Assay results from EP0840781B1, “METHODS AND DEVICES FOR THE REMOVAL OF PSORALENS FROM BLOOD PRODUCTS” (Cerus Corporation, priority 1995, dated 1996).
Read-outs that look alike come from different tables or passages of the source.

Tests used:
[1] = system: Salmonella typhimurium tester strains TA97a, TA98, TA100, TA102, TA1537 and TA1538; conditions: for revertant colonies, TA1538 +S9 (Table 18 (A)): background 123; for revertant colonies, TA1538 -S9 (Table 18 (A)): background 126; for revertant colonies, TA1537 -S9 (Table 18 (A)): background 20; for revertant colonies, TA1537 +S9 (Table 18 (A)): background 25
How it was run: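 Ames pre-incubation test in S. typhimurium TA97a, TA98, TA1537, TA1538 (frameshift) and TA100, TA102 (base-substitution), with or without 10% Aroclor 1254-induced rat liver S-9. Test solutions at 0–500 µg/mL pre-incubated 20 min at 37 °C, plated in histidine/biotin top agar; revertant colonies counted after 44 h at 37 °C.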

Pseudomonas = experiment: Bacterial inactivation by compound plus UVA, colony forming units; assay type: cell-based; conditions: 16 µM; 5 J/cm^2 irradiation; starting titer 6.5 logs
Description: In this example bacterial inactivation by the photoreactive nucleic acid binding compounds described herein was measured as a function of the ability of the bacteria to subsequently replicate. A gram negative bacteria was chosen as representative of the more difficult bacterial strains to inactivate.
The bacteria a strain of Pseudomonas, was inoculated into LB with a sterile loop and grown overnight in a shaker at 37°C. Based on the approximation that one OD at 610 nm is equivalent to 5 x 10^8 colony forming units (cfu)/mL, a 1:10 dilution of the culture was measured on a spectrophotometer. (manufactured by Shimatsu). The bacterial culture was added to a solution of 15% fetal bovine serum in DMEM to a final bacteria concentration of approximately 10^6/mL. An aliquot (0.8 mL) was transferred to a 1.5 mL snap-top polyethylene tube. An aliquot (0.004-0.040 mL) of the test compound stock solution prepared in water, ethanol or dimethylsulfoxide at 0.80-8.0 mM was added to the tube. Compounds were tested at a concentration of 16 µM. The tubes were placed in a light device as described in EXAMPLE I and irradiated with 1.3 J/cm^2, 1.2 J/cm^2, and finally 2.5 J/cm^2, for a total of 5 J/cm^2. 150 µL were removed for testing after each pulse period. Sterile 13 mL dilution tubes were prepared; each test compound required one tube with 0.4 mL of LB broth and four tubes containing 0.5 mL of LB broth. To make the dilutions, a 0.050 mL aliquot of the irradiated solution of phage and test compound was added to the first dilution tube of […] of media then 0.050 mL of this solution was added to the second tube of 0.5 mL medium (1:10). The second solution was then diluted serially (1:10) into the remaining tubes. 100 µL of the original sample and each dilution are plated separately onto LB agar plates and incubated at 37 °C overnight. The colony forming units were then counted the following morning and the titer of the phage remaining after phototreatment was calculated based on the dilution factors.
The following controls were run: the "bacteria only" in which bacteria was not treated with test compound and not irradiated (listed as "starting titer" in the tables below); the "UV only" in which the bacteria was irradiated in the absence of test compound. Dark controls were not performed here for reasons set forth in Example 12 above.

[2] = two-fold or greater increase in revertants above background and dose dependent response

Cc1oc2c(C)c3oc(=O)cc(C)c3cc2c1CNCCCCN [Compound 6, 4'-(6-amino-2-aza)hexyl4,5',8-trimethylpsoralen]
revertant colonies, TA1538 +S9 ([1]; 5 µg/plate): 0 | revertant colonies, TA1538 -S9 ([1]; 5 µg/plate): -5 | revertant colonies, TA1538 +S9 (Table 18 (A)) ([1]; 5 µg/plate): 12 | revertant colonies, TA1538 -S9 (Table 18 (A)) ([1]; 5 µg/plate): -32 | revertant colonies, TA1537 +S9 ([1]; 10 µg/plate): -1 | revertant colonies, TA1537 -S9 ([1]; 10 µg/plate): 141 | revertant colonies, TA1538 +S9 ([1]; 10 µg/plate): 8 | revertant colonies, TA1538 -S9 ([1]; 10 µg/plate): -2 | revertant colonies, TA1537 -S9 (Table 18 (A)) ([1]; 10 µg/plate): 12 | revertant colonies, TA1537 +S9 (Table 18 (A)) ([1]; 10 µg/plate): -5 | revertant colonies, TA1538 +S9 (Table 18 (A)) ([1]; 10 µg/plate): -5 | revertant colonies, TA1538 -S9 (Table 18 (A)) ([1]; 10 µg/plate): 3 | revertant colonies, TA1537 +S9 ([1]; 50 µg/plate): 17 | revertant colonies, TA1537 -S9 ([1]; 50 µg/plate): 2010 | revertant colonies, TA1537 -S9 (Table 18 (A)) ([1]; 50 µg/plate): 12 | revertant colonies, TA1537 +S9 (Table 18 (A)) ([1]; 50 µg/plate): 2 | revertant colonies, TA1538 +S9 (Table 18 (A)) ([1]; 50 µg/plate): 24 | revertant colonies, TA1538 -S9 (Table 18 (A)) ([1]; 50 µg/plate): 2 | revertant colonies, TA1537 +S9 ([1]; 100 µg/plate): 35 | revertant colonies, TA1537 -S9 ([1]; 100 µg/plate): 795 | revertant colonies, TA1537 -S9 (Table 18 (A)) ([1]; 100 µg/plate): 22 | revertant colonies, TA1537 +S9 (Table 18 (A)) ([1]; 100 µg/plate): 20 | revertant colonies, TA1538 +S9 (Table 18 (A)) ([1]; 100 µg/plate): -2 | revertant colonies, TA1538 -S9 (Table 18 (A)) ([1]; 100 µg/plate): -18 | revertant colonies, TA1537 +S9 ([1]; 250 µg/plate): 99 | revertant colonies, TA1537 -S9 ([1]; 250 µg/plate): 228 | revertant colonies, TA1537 -S9 (Table 18 (A)) ([1]; 250 µg/plate): 12 | revertant colonies, TA1537 +S9 (Table 18 (A)) ([1]; 250 µg/plate): 40 | revertant colonies, TA1538 +S9 (Table 18 (A)) ([1]; 250 µg/plate): -38 | revertant colonies, TA1537 +S9 ([1]; 500 µg/plate): 369 | revertant colonies, TA1537 -S9 ([1]; 500 µg/plate): 43 | revertant colonies, TA1537 -S9 (Table 18 (A)) ([1]; 500 µg/plate): 9 | revertant colonies, TA1537 +S9 (Table 18 (A)) ([1]; 500 µg/plate): 52 | frameshift mutagenicity (Ames, summary) [1, 2]: a frameshift response in TA98 in the presence of S9 at concentrations of 250µg/plate and above. It also showed a response at 50µg/plate in TA1537 in the presence of S9 | base-substitution mutagenicity (Ames, summary) ([1]; two-fold or greater increase in revertants above background and dose dependent response, TA100, TA102): no base substitution mutagenicity | log kill of bacteria (Pseudomonas) (Pseudomonas): > 5.5 logs

Cc1oc2c(C)c3oc(=O)cc(C)c3cc2c1COCCN [Compound 2, 4'-(4-amino-2-oxa)butyl-4,5',8-trimethylpsoralen]
revertant colonies, TA100 +S9 ([1]; 5 µg/plate): -18 | revertant colonies, TA100 -S9 ([1]; 5 µg/plate): 103 | revertant colonies, TA1538 +S9 ([1]; 5 µg/plate): 2 | revertant colonies, TA1538 -S9 ([1]; 5 µg/plate): -8 | revertant colonies, TA98 +S9 ([1]; 10 µg/plate): 24 | revertant colonies, TA98 -S9 ([1]; 10 µg/plate): 28 | revertant colonies, TA100 +S9 ([1]; 10 µg/plate): 1 | revertant colonies, TA100 -S9 ([1]; 10 µg/plate): 46 | revertant colonies, TA1537 +S9 ([1]; 10 µg/plate): 5 | revertant colonies, TA1537 -S9 ([1]; 10 µg/plate): 36 | revertant colonies, TA1538 +S9 ([1]; 10 µg/plate): 4 | revertant colonies, TA1538 -S9 ([1]; 10 µg/plate): -13 | revertant colonies, TA98 +S9 ([1]; 50 µg/plate): 35 | revertant colonies, TA98 -S9 ([1]; 50 µg/plate): 52 | revertant colonies, TA100 +S9 ([1]; 50 µg/plate): 115 | revertant colonies, TA100 -S9 ([1]; 50 µg/plate): 182 | revertant colonies, TA1537 +S9 ([1]; 50 µg/plate): 40 | revertant colonies, TA1537 -S9 ([1]; 50 µg/plate): 282 | revertant colonies, TA98 +S9 ([1]; 100 µg/plate): 53 | revertant colonies, TA98 -S9 ([1]; 100 µg/plate): 39 | revertant colonies, TA100 +S9 ([1]; 100 µg/plate): 96 | revertant colonies, TA100 -S9 ([1]; 100 µg/plate): 121 | revertant colonies, TA1537 +S9 ([1]; 100 µg/plate): 88 | revertant colonies, TA1537 -S9 ([1]; 100 µg/plate): 258 | revertant colonies, TA98 +S9 ([1]; 250 µg/plate): 69 | revertant colonies, TA98 -S9 ([1]; 250 µg/plate): 29 | revertant colonies, TA1537 +S9 ([1]; 250 µg/plate): 744 | revertant colonies, TA1537 -S9 ([1]; 250 µg/plate): 176 | revertant colonies, TA98 +S9 ([1]; 500 µg/plate): 63 | revertant colonies, TA98 -S9 ([1]; 500 µg/plate): 6 | revertant colonies, TA1537 +S9 ([1]; 500 µg/plate): 395 | revertant colonies, TA1537 -S9 ([1]; 500 µg/plate): 114 | frameshift mutagenicity (Ames, summary) [1, 2]: weak frameshift mutagenicity in the presence of S9 in TA98 and TA1537 | log kill of bacteria (Pseudomonas) (Pseudomonas): > 5.5 logs
